# Test results taken from patent US20060069132A1, “Azolecarboxamide herbicides” (priority 2004, published 2006).
# Legend:
# barnyardgrass [1] = assay: Test B pre-/postemergence herbicide test; assay type: in vivo, Echinochloa crus-galli; details: for Barnyardgrass plant response rating: postemergence, scale 0 (no effect) to 100 (complete control)
# How it was run: (§1)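 Greenhouse pot assay with simultaneous preemergence (treated seed) and postemergence (2–18 cm seedlings) applications of surfactant-containing, non-phytotoxic solvent formulations. Response scored visually 13–15 days later on a 0–100 scale, 100 meaning complete control.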
# Surinam grass = assay: Test B pre-/postemergence herbicide test; assay type: in vivo, Urochloa decumbens; details: for Surinam Grass plant response rating: postemergence
# How it was run: (§2)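 Evaluation is visual, comparing treated with control plants on a scale where 0 means no effect and 100 means full control. Treatments were preemergence, or postemergence on seedlings 2–18 cm tall, and held 13–15 days in the greenhouse.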
# cocklebur = assay: Test B pre-/postemergence herbicide test; assay type: in vivo, Xanthium strumarium; details: for Cocklebur plant response rating: postemergence, scale 0 (no effect) to 100 (complete control)
# How it was run: as §1
# corn = assay: Test B pre-/postemergence herbicide test; assay type: in vivo, Zea mays; details: for Corn plant response rating: postemergence
# How it was run: as §2
# large crabgrass = assay: Test B pre-/postemergence herbicide test; assay type: in vivo, Digitaria sanguinalis; details: for Crabgrass, Large plant response rating: postemergence
# How it was run: as §2
# giant foxtail = assay: Test B pre-/postemergence herbicide test; assay type: in vivo, Setaria faberi; details: for Foxtail, Giant plant response rating: postemergence
# How it was run: as §2
# lambsquarters = assay: Test B pre-/postemergence herbicide test; assay type: in vivo, Chenopodium album; details: for Lambsquarters plant response rating: postemergence
# How it was run: as §2
# morningglory = assay: Test B pre-/postemergence herbicide test; assay type: in vivo, Ipomoea coccinea; details: for Morningglory plant response rating: postemergence
# How it was run: as §1
# pigweed = assay: Test B pre-/postemergence herbicide test; assay type: in vivo, Amaranthus retroflexus; details: for Pigweed plant response rating: postemergence
# How it was run: as §2
# rice [2] = assay: Test B pre-/postemergence herbicide test; assay type: in vivo, Oryza sativa; details: 0 = no effect, 100 = complete control, preemergence
# How it was run: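 Plants compared with untreated controls 13–15 days post-treatment and given a visual 0–100 injury score. Applications: preemergence to seeds; postemergence at 1- to 4-leaf (2–18 cm); paddy species flooded, 2-leaf stage. Vehicle non-phytotoxic, surfactant included.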
# velvetleaf = assay: Test B pre-/postemergence herbicide test; assay type: in vivo, Abutilon theophrasti; details: for Velvetleaf plant response rating: postemergence
# How it was run: as §2
# blackgrass = assay: Test B postemergence herbicide test; assay type: in vivo, Alopecurus myosuroides; details: postemergence, visual rating, scale 0 (no effect) to 100 (complete control)
# How it was run: (§3)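 Greenhouse test; postemergence application to plants at 1–4 leaves (2–18 cm); paddy species at 2 leaves; evaluated visually vs controls at 13–15 days; scale 0–100 (100 = complete control).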
# wheat = assay: Test B postemergence herbicide test; assay type: in vivo, Triticum aestivum; parameters: key to Wheat plant response rating: 0 = no effect, 100 = complete control; details: postemergence
# How it was run: (§4)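 Postemergence plants were sprayed with formulated test chemicals at 2 to 18 cm height (1- to 4-leaf stage); paddy species were grown to the 2-leaf stage. After 13 to 15 days in a greenhouse, injury was rated visually against untreated controls on a 0–100 scale (0 = no effect, 100 = complete control).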
# wild oat = assay: Test B postemergence herbicide test; assay type: in vivo, Avena fatua; details: postemergence
# How it was run: as §4
# rice [3] = assay: Test B flooded paddy test; assay type: in vivo, Oryza sativa; details: 1000 g ai/ha, scale 0 to 100 (0 no effect, 100 complete control)
# How it was run: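 Each value is a visual 0–100 response rating taken against controls 13 to 15 days after treatment in the greenhouse. Plants received formulated chemical postemergence at the 1- to 4-leaf stage or, in flooded paddy, at the 2-leaf stage.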
# [4] = test system: small flower umbrella sedge; assay: Test B flooded paddy test; assay type: in vivo, Cyperus difformis; details: 1000 g ai/ha, scale 0 to 100 (0 no effect, 100 complete control)
# How it was run: as §3
# ducksalad [5] = assay: Test B flooded paddy test; assay type: in vivo, Heteranthera limosa; details: 1000 g ai/ha, scale 0 to 100 (0 no effect, 100 complete control)
# How it was run: as §3
# barnyardgrass [6] = assay: Test B flooded paddy test; assay type: in vivo, Echinochloa crus-galli; details: 1000 g ai/ha, scale 0 to 100 (0 no effect, 100 complete control)
# How it was run: as §3
# rice [7] = assay: Test C flooded paddy test; assay type: in vivo, Oryza sativa
# How it was run: (§5)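 Postemergence sprays applied to plants 2 to 18 cm tall (1- to 4-leaf stage); paddy species grown to 2-leaf stage under flooding. After 12 to 14 days in greenhouse, visual rating versus untreated controls on 0–100 scale (0 no effect, 100 complete control).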
# [8] = test system: smallflower umbrella sedge; assay: Test C flooded paddy test; assay type: in vivo, Cyperus difformis
# ducksalad [9] = assay: Test C flooded paddy test; assay type: in vivo, Heteranthera limosa
# barnyardgrass [10] = assay: Test C flooded paddy test; assay type: in vivo, Echinochloa crus-galli
# How it was run: as §5
# [11] = 125 g ai/ha, 0 = no effect, 100 = complete control, preemergence
# [12] = 500 g ai/ha, visual rating, 0 = no effect, 100 = complete control, preemergence
# [13] = 125 g ai/ha, visual rating, scale 0 (no effect) to 100 (complete control)
# [14] = 500 g ai/ha, scale 0 to 100, 0 is no effect, 100 is complete control
# [15] = 125 g ai/ha, scale 0 to 100 (0 no effect, 100 complete control)
# [16] = 250 g ai/ha, scale of 0 to 100, 0 is no effect, 100 is complete control
# [17] = 500 g ai/ha, visual rating after 12 to 14 days, scale 0 to 100 (0 no effect, 100 complete control)
smiles,measurement,setting,value
CCn1nc(C(C)(C)C)cc1C(=O)Nc1ccnc(C(=O)N(C)C)c1 [Compound 256],Barnyardgrass plant response rating (0 to 100 scale),barnyardgrass [1]; [11],0
same,"Plant response rating, Barnyardgrass",barnyardgrass [1]; [12],70
same,Barnyardgrass plant response rating,"barnyardgrass [1]; 125 g ai/ha, visual rating",0
same,Barnyardgrass plant response rating,"barnyardgrass [1]; 500 g ai/ha, visual rating",60
same,Surinam Grass plant response rating (0 to 100 scale),Surinam grass; [11],60
same,"Plant response rating, Surinam Grass",Surinam grass; [12],60
same,Surinam Grass plant response rating,Surinam grass; [13],0
same,Surinam Grass plant response rating,Surinam grass; [14],20
same,Cocklebur plant response rating (0 to 100 scale),cocklebur; [11],0
same,"Plant response rating, Cocklebur",cocklebur; [12],0
same,Cocklebur plant response rating,"cocklebur; 125 g ai/ha, visual rating",0
same,Cocklebur plant response rating,"cocklebur; 500 g ai/ha, visual rating",0
same,Corn plant response rating (0 to 100 scale),corn; [11],0
same,"Plant response rating, Corn",corn; [12],0
same,Corn plant response rating,corn; [13],0
same,Corn plant response rating,corn; [14],10
same,"Crabgrass, Large plant response rating (0 to 100 scale)",large crabgrass; [11],10
same,"Plant response rating, Crabgrass, Large",large crabgrass; [12],100
same,"Crabgrass, Large plant response rating",large crabgrass; [13],0
same,"Crabgrass, Large plant response rating",large crabgrass; [14],20
same,"Foxtail, Giant plant response rating (0 to 100 scale)",giant foxtail; [11],0
same,"Plant response rating, Foxtail, Giant",giant foxtail; [12],60
same,"Foxtail, Giant plant response rating",giant foxtail; [13],0
same,"Foxtail, Giant plant response rating",giant foxtail; [14],50
same,"Plant response rating, Lambsquarters",lambsquarters; [12],100
same,Lambsquarters plant response rating,lambsquarters; [13],30
same,Lambsquarters plant response rating,lambsquarters; [14],60
same,Morningglory plant response rating (0 to 100 scale),morningglory; [11],0
same,"Plant response rating, Morningglory",morningglory; [12],0
same,Morningglory plant response rating,morningglory; [13],0
same,Morningglory plant response rating,morningglory; [14],10
same,"Plant response rating, Pigweed",pigweed; [12],100
same,Pigweed plant response rating,pigweed; [13],30
same,Pigweed plant response rating,pigweed; [14],60
same,Rice plant response rating (0 to 100 scale),rice [2]; 125 g ai/ha,30
same,"Plant response rating, Rice","rice [2]; 500 g ai/ha, visual rating",80
same,Velvetleaf plant response rating (0 to 100 scale),velvetleaf; [11],0
same,"Plant response rating, Velvetleaf",velvetleaf; [12],80
same,Velvetleaf plant response rating,velvetleaf; [13],10
same,Velvetleaf plant response rating,velvetleaf; [14],30
same,Blackgrass plant response rating,blackgrass; 125 g ai/ha,0
same,Blackgrass plant response rating,blackgrass; 500 g ai/ha,20
same,Wheat plant response rating,wheat; [13],10
same,Wheat plant response rating,wheat; [14],30
same,"Oat, Wild plant response rating",wild oat; [13],10
same,"Oat, Wild plant response rating",wild oat; [14],30
same,Rice plant response rating,rice [3],50
same,"Sedge, Umbrella plant response rating",[4],70
same,Ducksalad plant response rating,ducksalad [5],90
same,Barnyardgrass plant response rating,barnyardgrass [6],30
same,Rice plant response rating,"rice [7]; 62 g ai/ha, scale 0 to 100",0
same,Rice plant response rating,rice [7]; [15],0
same,Rice plant response rating,rice [7]; [16],0
same,"Plant response rating, Rice",rice [7]; [17],15
same,"Sedge, Umbrella plant response rating","[8]; 62 g ai/ha, scale 0 to 100",0
same,"Sedge, Umbrella plant response rating",[8]; [15],0
same,"Sedge, Umbrella plant response rating",[8]; [16],60
same,"Plant response rating, Sedge, Umbrella",[8]; [17],60
same,Ducksalad plant response rating,"ducksalad [9]; 62 g ai/ha, scale 0 to 100",0
same,Ducksalad plant response rating,ducksalad [9]; [15],0
same,Ducksalad plant response rating,ducksalad [9]; [16],15
same,"Plant response rating, Ducksalad",ducksalad [9]; [17],65
same,Barnyardgrass plant response rating,"barnyardgrass [10]; 62 g ai/ha, scale 0 to 100 (0 no effect, 100 complete control)",0
same,Barnyardgrass plant response rating,barnyardgrass [10]; [15],0
same,Barnyardgrass plant response rating,barnyardgrass [10]; [16],0
same,"Plant response rating, Barnyardgrass",barnyardgrass [10]; [17],0
